Drawing on the supplement of paper PMC10307832, this text covers relative viability for nine cell lines.

Common to all, as to assay: relative viability (nuclei count vs DMSO), 5 days (fraction); higher = more cells survive
Compound in the experiment “TPCA-1 + Lapatinib”: C1=CC(=CC=C1C2=CC(=C(S2)NC(=O)N)C(=O)N)F [TPCA-1] + CS(=O)(=O)CCNCc1ccc(-c2ccc3ncnc(Nc4ccc(OCc5cccc(F)c5)c(Cl)c4)c3c2)o1 [Lapatinib] (partner 2 µM)
In short, it runs like this:
(§1)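 Lung cancer cell lines in 1536-well plates were dosed by pin tool the day after seeding, either with one drug alone or with a fixed anchor-drug dose plus five library-drug doses (not always all listed) in √10 steps. After 5 days, cells were fixed and their nuclei stained in one step (final 0.05% Triton X-100, 1% formaldehyde, 1 ug/ml Hoechst), then counted on 4× images. Relative viability is the nuclei count in treated wells divided by that in vehicle wells. Values are medians of duplicate plates.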

Compound in experiment [1]: C[C@]12O[C@H](C[C@]1(O)CO)n1c3ccccc3c3c4c(c5c6ccccc6n2c5c31)CNC4=O [Lestaurtinib] + C[C@]1(O)C[C@@H](c2nc(-c3ccc4ccc(-c5ccccc5)nc4c3)c3c(N)nccn32)C1 [Linsitinib] (partner 1 µM)
In short, it runs like this:
as §1

Compound in experiment [2]: C1/C(=C\C2=CC=CS2)/C(=O)/C(=C/C3=CC=CS3)/C1 + C[C@@H](Oc1cc(-c2cnn(C3CCNCC3)c2)cnc1N)c1c(Cl)ccc(F)c1Cl [Crizotinib] (partner 1 µM)
In short, it runs like this: as §1

Compound in experiment [3]: C[C@]12O[C@H](C[C@]1(O)CO)n1c3ccccc3c3c4c(c5c6ccccc6n2c5c31)CNC4=O [Lestaurtinib] + Cc1cc(Nc2cc(N3CCN(C)CC3)nc(Sc3ccc(NC(=O)C4CC4)cc3)n2)n[nH]1 [Tozasertib] (partner 0.1 µM)
In short, it runs like this: as §1

For the cell line 201T, the relative viability stood at 1.05 with TPCA-1 + Lapatinib (first compound 0.04 µM); 1.02 with TPCA-1 + Lapatinib (first compound 0.1265 µM); 1.01 in the experiment with TPCA-1 + Lapatinib (first compound 0.4 µM); 1.01 with TPCA-1 + Lapatinib (first compound 1.265 µM); 1.05 with TPCA-1 + Lapatinib (first compound 4 µM); 1.03 in experiment [1] (first compound 0.005 µM). Besides, the relative viability came to 0.987 in experiment [1] (first compound 0.01581 µM); 0.992 in experiment [1] (first compound 0.05 µM); 0.926 in experiment [1] (first compound 0.1581 µM); 0.937 in experiment [1] (first compound 0.5 µM); 1.05 in experiment [2] (first compound 0.2 µM); 1.04 in experiment [2] (first compound 0.6325 µM). The relative viability was 1.07 in experiment [2] (first compound 2 µM); 0.996 in experiment [2] (first compound 6.325 µM); 1.01 in experiment [2] (first compound 20 µM); 1 in experiment [3] (first compound 0.005 µM); 0.984 in experiment [3] (first compound 0.01581 µM); 1.05 in experiment [3] (first compound 0.05 µM). Also, the relative viability in experiment [3] (first compound 0.1581 µM) amounted to 0.955; in experiment [3] (first compound 0.5 µM), 0.354.
A549: the relative viability with TPCA-1 + Lapatinib (first compound 0.04 µM) was 1.03; with TPCA-1 + Lapatinib (first compound 0.1265 µM), 0.922; in the experiment with TPCA-1 + Lapatinib (first compound 0.4 µM) it was 1.1; in the experiment with TPCA-1 + Lapatinib (first compound 1.265 µM), 0.959; with TPCA-1 + Lapatinib (first compound 4 µM), 0.969; in experiment [1] (first compound 0.005 µM) it was 0.621. In addition, the relative viability in experiment [1] (first compound 0.01581 µM) was found to be 0.596; in experiment [1] (first compound 0.05 µM) it was 0.229; in experiment [1] (first compound 0.1581 µM) it was 0.148; in experiment [1] (first compound 0.5 µM) it was 0.174; in experiment [2] (first compound 0.2 µM) it was 0.825; in experiment [2] (first compound 0.6325 µM), 0.813. For the same cell line, the relative viability turned out to be 0.823 in experiment [2] (first compound 2 µM), 0.767 in experiment [2] (first compound 6.325 µM) and 0.738 in experiment [2] (first compound 20 µM).
On to A-427, for which the relative viability in the experiment with TPCA-1 + Lapatinib (first compound 0.04 µM) was 1.17; with TPCA-1 + Lapatinib (first compound 0.1265 µM) it was 0.901; with TPCA-1 + Lapatinib (first compound 0.4 µM) it was 1.05; in the experiment with TPCA-1 + Lapatinib (first compound 1.265 µM) it was 0.989; with TPCA-1 + Lapatinib (first compound 4 µM), 0.907; in experiment [1] (first compound 0.005 µM), 1.17. Also, the relative viability in experiment [1] (first compound 0.01581 µM) is 1.12; in experiment [1] (first compound 0.05 µM), 1.01; in experiment [1] (first compound 0.1581 µM), 0.631; in experiment [1] (first compound 0.5 µM), 0.658; in experiment [2] (first compound 0.2 µM), 1.06; in experiment [2] (first compound 0.6325 µM) it was 0.888. Further, the relative viability in experiment [2] (first compound 2 µM) came out at 0.946; in experiment [2] (first compound 6.325 µM) it was 0.813; in experiment [2] (first compound 20 µM), 0.955; in experiment [3] (first compound 0.005 µM), 0.199; in experiment [3] (first compound 0.01581 µM), 0.206; in experiment [3] (first compound 0.05 µM), 0.183. Further, the relative viability in experiment [3] (first compound 0.1581 µM) was determined as 0.159; in experiment [3] (first compound 0.5 µM), 0.144.
Turning to Calu-6, the relative viability in the experiment with TPCA-1 + Lapatinib (first compound 0.04 µM) was 1.15; with TPCA-1 + Lapatinib (first compound 0.1265 µM), 1.04; with TPCA-1 + Lapatinib (first compound 0.4 µM), 1.01; with TPCA-1 + Lapatinib (first compound 1.265 µM), 0.956; with TPCA-1 + Lapatinib (first compound 4 µM) it was 0.91; in experiment [1] (first compound 0.005 µM), 0.908. Besides, the relative viability in experiment [1] (first compound 0.05 µM) turned out to be 0.555; in experiment [1] (first compound 0.1581 µM), 0.262; in experiment [1] (first compound 0.5 µM) it was 0.218; in experiment [2] (first compound 0.2 µM), 0.845; in experiment [2] (first compound 0.6325 µM), 0.873; in experiment [2] (first compound 2 µM), 0.846. Further, the relative viability was found to be 0.764 in experiment [2] (first compound 6.325 µM) and 0.772 in experiment [2] (first compound 20 µM).
As to ChaGo-K-1, the relative viability in experiment [2] (first compound 0.2 µM) came out at 1.16; in experiment [2] (first compound 0.6325 µM) it was 1.23; in experiment [2] (first compound 2 µM), 1.08; in experiment [2] (first compound 6.325 µM), 1.05; in experiment [2] (first compound 20 µM), 0.76; in experiment [3] (first compound 0.005 µM), 0.221. Also, the relative viability in experiment [3] (first compound 0.01581 µM) was 0.254; in experiment [3] (first compound 0.05 µM) it was 0.243; in experiment [3] (first compound 0.1581 µM), 0.231; in experiment [3] (first compound 0.5 µM), 0.215.
In the case of EBC-1, the relative viability in the experiment with TPCA-1 + Lapatinib (first compound 0.04 µM) was 0.201; in the experiment with TPCA-1 + Lapatinib (first compound 0.1265 µM), 0.233; with TPCA-1 + Lapatinib (first compound 0.4 µM), 0.196; in the experiment with TPCA-1 + Lapatinib (first compound 1.265 µM), 0.224; with TPCA-1 + Lapatinib (first compound 4 µM) it was 0.248; in experiment [1] (first compound 0.005 µM), 0.856. Also, the relative viability is 0.999 in experiment [1] (first compound 0.01581 µM); 0.585 in experiment [1] (first compound 0.05 µM); 0.633 in experiment [1] (first compound 0.1581 µM); 0.432 in experiment [1] (first compound 0.5 µM); 0.204 in experiment [2] (first compound 0.2 µM); 0.213 in experiment [2] (first compound 0.6325 µM). For the same cell line, the relative viability turned out to be 0.191 in experiment [2] (first compound 2 µM), 0.189 in experiment [2] (first compound 6.325 µM) and 0.22 in experiment [2] (first compound 20 µM).
As for IA-LM, the relative viability with TPCA-1 + Lapatinib (first compound 0.04 µM) was 0.64; in the experiment with TPCA-1 + Lapatinib (first compound 0.1265 µM), 0.804; with TPCA-1 + Lapatinib (first compound 0.4 µM), 0.87; with TPCA-1 + Lapatinib (first compound 1.265 µM), 0.626; with TPCA-1 + Lapatinib (first compound 4 µM) it was 0.896; in experiment [1] (first compound 0.005 µM) it was 0.459. Moreover, the relative viability in experiment [1] (first compound 0.01581 µM) is 1.02; in experiment [1] (first compound 0.05 µM), 0.927; in experiment [1] (first compound 0.1581 µM), 0.792; in experiment [1] (first compound 0.5 µM) it was 0.553; in experiment [2] (first compound 0.2 µM), 1.19; in experiment [2] (first compound 0.6325 µM) it was 0.721. The values for the relative viability in experiment [2] (first compound 2 µM), in experiment [2] (first compound 6.325 µM) and in experiment [2] (first compound 20 µM) were 0.651, 0.747 and 1, respectively.
On to LCLC-103H, for which the relative viability in experiment [1] (first compound 0.005 µM) is 1.07; in experiment [1] (first compound 0.01581 µM), 1.12; in experiment [1] (first compound 0.05 µM), 0.697; in experiment [1] (first compound 0.1581 µM), 0.705; in experiment [1] (first compound 0.5 µM), 0.6; in experiment [2] (first compound 0.2 µM), 1.09. For the same cell line, the relative viability in experiment [2] (first compound 0.6325 µM) worked out at 1.03; in experiment [2] (first compound 2 µM) it was 1.08; in experiment [2] (first compound 6.325 µM), 0.906; in experiment [2] (first compound 20 µM), 1.03; in experiment [3] (first compound 0.005 µM) it was 0.526; in experiment [3] (first compound 0.01581 µM), 0.595. Moreover, the relative viability was 0.384 in experiment [3] (first compound 0.05 µM), 0.424 in experiment [3] (first compound 0.1581 µM) and 0.209 in experiment [3] (first compound 0.5 µM).
As for NCI-H441, the relative viability in experiment [1] (first compound 0.005 µM) stood at 0.446; in experiment [1] (first compound 0.01581 µM), 0.547; in experiment [1] (first compound 0.05 µM), 0.182; in experiment [1] (first compound 0.1581 µM), 0.339; in experiment [1] (first compound 0.5 µM) it was 0.27; in experiment [2] (first compound 0.2 µM), 0.967. Further, the relative viability in experiment [2] (first compound 0.6325 µM) was determined as 0.786; in experiment [2] (first compound 2 µM) it was 1.06; in experiment [2] (first compound 6.325 µM), 0.729; in experiment [2] (first compound 20 µM), 0.604; in experiment [3] (first compound 0.005 µM), 0.711; in experiment [3] (first compound 0.01581 µM), 0.719. Further, the figures for the relative viability in experiment [3] (first compound 0.05 µM), in experiment [3] (first compound 0.1581 µM) and in experiment [3] (first compound 0.5 µM) were 0.537, 0.651 and 0.442, respectively.
